Assay results: patent publication US11154593B2, “CNP prodrugs with large carrier moieties” (ASCENDIS PHARMA GROWTH DISORDERS A/S, priority 2016, dated 2021)
Like-named read-outs stand apart in the source and are kept apart here.

Key:
[1] = molecular target: recombinant human NEP (Homo sapiens, UniProt P08473); assay: Digest of CNP variants by Neutral Endopeptidase in vitro (NEP digest assay); details: pH 7.4
Description: (§1) In order to determine the in vitro stability of various CNP variants including different peptide chain lengths and PEGylations using different PEGylation sites and PEG molecules in the presence of Neutral Endopeptidase (NEP), a NEP digest assay was established. This assay monitored the decrease of the non-digested CNP variant (normalized with the internal standard PFP) over time in reference to the t0-time point.
(§2) In detail, recombinant human NEP (2.5 μg/mL final concentration) and the standard pentafluorophenol (PFP; 40 μg/mL final concentration) were added to the CNP variant (100 μg CNP equivalents/mL) in digest buffer (50 mM Tris-HCl, pH 7.4, 10 mM NaCl). The solution was incubated at 37° C. and 500 rpm for up to 4 days. Samples were taken at different time intervals. The reaction was stopped by a combined reduction and heat denaturation adding TCEP (tris(2-carboxyethyl)phosphine; 25 mM final concentration) and incubating the mixture at 95° C., 500 rpm for 5 minutes. The resulting reaction products were assigned using HPLC-MS. The half life of each CNP variant was calculated via the ratio change in the HPLC-UV peak areas of CNP and PFP over time.

[2] = Evaluation of cardiovascular effects in the conscious telemetered mouse (subcutaneous administration); assay type: in vivo; details: for MAP during the remaining ten time points versus vehicle / change in MAP at the 5, 15 and 30 min post dose time points compared to predose / MAP (mean ± SD): 800 μg CNP-38 (eq)/kg sc; for MAP during the remaining ten time points versus vehicle: 1 to 48 hours postdose; for change in MAP at the 5, 15 and 30 min post dose time points compared to predose: CNP-38: 3 of 4 animals
Description: Male Crl:CDl(ICR) mice (age range 8-13 weeks and body weight range 27.3-35.6 g at start of dosing) were surgically implanted with a TA11PA-C10 telemetry transmitter (Data Sciences International (DSI)) in the carotid artery. The body of the transmitter was placed subcutaneously in the lateral flank of the mouse. The mice were dosed subcutaneously in a latin square crossover design with at least 72 hours between dosing occasions. […] At least four mice were included at each dose level. Blood pressure (systolic (SAP), diastolic (DAP) and mean (MAP) and heart rate (HR, derived from blood pressure), were recorded using a digital data capture system linked with a DSI™ Ponemah data acquisition and analysis system. The capture system allowed recording of the cardiovascular parameters whilst the mice were in individual cages. On the day of each test session the animals were weighed and a predose recording was performed for at least 60 min prior to dosing. Each mouse was returned to the home cage and the cardiovascular parameters were recorded for approximately 48 hours postdose. Blood pressure and HR were reported at the following time points: -30, -20, -10, 5, 15 and 30 min postdose and 1, 2, 6, 12, 18, 24, 30, 36, 42 and 48 hours postdose. Each time point was presented as the average value of five minute's recording prior to the time point. The monitoring period was selected to cover exposure to the test items both prior to and after Tmax.

[3] = Pharmacokinetic profile of CNP-38 after subcutaneous single-dose administration to cynomolgus monkeys; assay type: in vivo
Description: Blood samples were collected at 5, 10, 15, 30, 45 min and 1, 2, 4, 8 hours upon dose.
Method: Plasma levels of CNP were analysed using a commercially available competitive radioimmuno-assay (RK-012-03, Phoenix Pharmaceuticals, CA). The assay was applied essentially as described by the manufacturer. The assay is based on competitive binding between 1251-labelled CNP (supplied in the kit) and unlabeled CNP (from study sample or calibrants) to an anti-CNP antibody. […] By measuring the amount of 1251-labelled CNP bound as a function of the concentration of peptide, it is possible to construct a calibration curve from which the concentration of peptide in the sample can be determined.
A few changes to the supplied assay protocol were made. These changes included using in-house CNP calibrant and QC samples to secure consistency between assay runs. […] Due to matrix effects in monkey plasma, the minimal required dilution was set at 1:10, yielding an assay range of 150-1080 μg/mL CNP.

[4] = molecular target: Neutral Endopeptidase (NEP) (Homo sapiens, UniProt P08473); assay: in vitro; details: pH 7.4
Description: as §1, §2

[5] = in vivo; cited from earlier work
[6] = doses up to 15 μg/kg, healthy volunteers; cited from earlier work
[7] = molecular target: T1, NPR-B (Mus musculus, UniProt Q6VVW5); assay: Functional cGMP stimulation in NIH-3T3 cells with CNP variants; assay type: cell-based, Murine; details: cGMP TR-FRET, 30 min, 37° C.
T1 construct: These cells express endogenously NPR-B on the cell surface; endogenous in cells; host or cells: NIH-3T3 (murine embryo fibroblasts)
T1 sequence (Q6VVW5 17-1047): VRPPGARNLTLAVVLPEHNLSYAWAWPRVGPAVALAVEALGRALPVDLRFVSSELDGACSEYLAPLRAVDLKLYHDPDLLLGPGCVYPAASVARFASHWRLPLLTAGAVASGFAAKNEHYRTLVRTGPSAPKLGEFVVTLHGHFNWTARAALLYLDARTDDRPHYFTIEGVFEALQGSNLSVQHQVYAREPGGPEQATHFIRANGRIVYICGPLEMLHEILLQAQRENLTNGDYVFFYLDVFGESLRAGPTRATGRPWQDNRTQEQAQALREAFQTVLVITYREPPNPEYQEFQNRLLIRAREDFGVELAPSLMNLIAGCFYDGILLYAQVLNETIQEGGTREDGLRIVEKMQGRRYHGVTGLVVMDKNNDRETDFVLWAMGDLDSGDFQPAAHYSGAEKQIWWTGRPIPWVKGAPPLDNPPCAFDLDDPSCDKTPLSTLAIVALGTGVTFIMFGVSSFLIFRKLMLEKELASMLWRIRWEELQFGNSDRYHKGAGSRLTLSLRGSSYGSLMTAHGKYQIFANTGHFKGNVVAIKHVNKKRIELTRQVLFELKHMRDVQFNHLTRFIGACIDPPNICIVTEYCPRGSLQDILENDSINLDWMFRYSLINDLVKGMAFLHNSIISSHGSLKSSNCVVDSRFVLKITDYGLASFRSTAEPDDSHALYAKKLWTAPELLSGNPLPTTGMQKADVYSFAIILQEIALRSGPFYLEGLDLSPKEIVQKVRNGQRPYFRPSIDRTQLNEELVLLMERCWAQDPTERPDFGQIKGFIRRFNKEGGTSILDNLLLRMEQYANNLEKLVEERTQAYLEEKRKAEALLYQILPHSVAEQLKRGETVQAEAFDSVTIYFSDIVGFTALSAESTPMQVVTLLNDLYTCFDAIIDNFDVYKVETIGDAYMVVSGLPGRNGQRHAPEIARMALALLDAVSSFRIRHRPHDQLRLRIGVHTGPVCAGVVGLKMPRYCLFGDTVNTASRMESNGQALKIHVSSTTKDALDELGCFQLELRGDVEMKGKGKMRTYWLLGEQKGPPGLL
Description: Functional activity of CNP variants were determined in a cell-based assay with NIH-3T3 cells (Murine Embryo Fibroblast cell line). These cells express endogenously NPR-B on the cell surface. Stimulation of NPR-B with CNP leads to intracellular production of the second messenger cGMP which is detected with a commercially available cGMP assay. NIH-3T3 cells were routinely cultured in DMEM F-12 medium with 5% FBS and 5 mM glutamine at 37° C. and 5% CO2. For each assay, 50,000 cells were resuspended in stimulation buffer (Dulbecco's PBS with IBMX) and incubated with the CNP variants in different concentrations. CNP (dilutions were made in PBS with 0.2% BSA). After incubation of 30 min at 37° C. and 5% CO2, the cells were lyzed and cGMP levels were determined with a commercially available cGMP TR-FRET assay (Cisbio, cGMP kit, Cat. No. 62GM2PEB). PEGylated CNP variants were always characterized in comparison with the non-PEGylated version in the same experiment batch. If possible, evaluation of the residual activity was done via the EC50- parameter of the resulting dose-response curve (restricted model with common slope).
After 7 d, released CNP-38 was isolated by RP-HPLC and analyzed for bioactivity as described in Example 22.

[8] = molecular target: T2, NPR-C (Homo sapiens, UniProt P17342); assay: NPR-C affinity assay (competition with fluorescein-labelled CNP 27d, flow cytometry); details: NPR-C expressing Hek293 cell line
T2 sequence (P17342 27-541): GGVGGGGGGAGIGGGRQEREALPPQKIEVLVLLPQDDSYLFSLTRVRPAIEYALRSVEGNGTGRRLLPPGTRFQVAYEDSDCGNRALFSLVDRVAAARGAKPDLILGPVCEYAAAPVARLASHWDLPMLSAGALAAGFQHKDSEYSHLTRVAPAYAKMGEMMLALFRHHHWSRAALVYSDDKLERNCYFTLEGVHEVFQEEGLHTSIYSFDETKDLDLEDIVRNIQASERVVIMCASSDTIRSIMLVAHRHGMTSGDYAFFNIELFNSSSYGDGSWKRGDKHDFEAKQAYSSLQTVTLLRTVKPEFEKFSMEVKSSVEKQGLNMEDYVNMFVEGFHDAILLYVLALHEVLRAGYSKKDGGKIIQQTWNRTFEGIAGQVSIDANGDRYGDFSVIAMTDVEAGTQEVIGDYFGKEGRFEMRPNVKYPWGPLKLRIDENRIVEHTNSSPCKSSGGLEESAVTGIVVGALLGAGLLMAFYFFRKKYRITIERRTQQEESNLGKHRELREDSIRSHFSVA

[9] = male, cynomolgus monkey, in vivo, sc, 40 ug/kg

Chain of recombinant human NEP (P08473 whole entry): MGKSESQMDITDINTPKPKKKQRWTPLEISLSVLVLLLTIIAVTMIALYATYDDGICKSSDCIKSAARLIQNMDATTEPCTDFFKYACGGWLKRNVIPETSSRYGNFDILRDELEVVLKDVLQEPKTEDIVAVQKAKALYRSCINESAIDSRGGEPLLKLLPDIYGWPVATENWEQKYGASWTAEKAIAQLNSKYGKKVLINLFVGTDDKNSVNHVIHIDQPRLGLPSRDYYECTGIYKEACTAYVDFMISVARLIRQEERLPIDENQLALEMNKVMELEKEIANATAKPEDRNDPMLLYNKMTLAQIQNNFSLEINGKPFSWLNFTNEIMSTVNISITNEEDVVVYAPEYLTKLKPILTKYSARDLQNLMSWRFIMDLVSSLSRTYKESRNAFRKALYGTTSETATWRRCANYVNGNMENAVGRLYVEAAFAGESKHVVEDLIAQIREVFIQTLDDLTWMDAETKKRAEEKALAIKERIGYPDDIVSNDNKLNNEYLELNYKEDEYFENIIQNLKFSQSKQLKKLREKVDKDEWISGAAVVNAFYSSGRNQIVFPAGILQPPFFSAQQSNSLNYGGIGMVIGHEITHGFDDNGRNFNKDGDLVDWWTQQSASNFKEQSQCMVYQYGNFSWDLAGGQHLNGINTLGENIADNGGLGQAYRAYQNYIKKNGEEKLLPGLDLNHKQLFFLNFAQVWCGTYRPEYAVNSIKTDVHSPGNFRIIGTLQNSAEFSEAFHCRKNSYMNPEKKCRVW
Chain of Neutral Endopeptidase (NEP) (P08473 whole entry): as above

Permanent Lys16 CNP-34 PEG 5 kDa Conjugate [Conjugate 17e]
half life norm. [1]: 54.23 h

Permanent Lys22 CNP-34 PEG 5 kDa Conjugate [Conjugate 18e]
half life norm. [1]: 38.87 h

CC[C@H](C)[C@@H]1NC(=O)[C@H](CCCNC(=N)N)NC(=O)[C@H](CC(=O)O)NC(=O)[C@H](CC(C)C)NC(=O)[C@H](CCCCN)NC(=O)[C@H](CC(C)C)NC(=O)CNC(=O)[C@H](Cc2ccccc2)NC(=O)[C@@H](NC(=O)CNC(=O)[C@H](CCCCN)NC(=O)[C@H](CO)NC(=O)[C@H](CC(C)C)NC(=O)CNC(=O)[C@H](CCCCN)NC(=O)[C@H](CCCCN)NC(=O)[C@H](CC(N)=O)NC(=O)[C@H](C)NC(=O)CNC(=O)[C@H](CCCCN)NC(=O)[C@H](Cc2ccc(O)cc2)NC(=O)[C@H](CCCCN)NC(=O)[C@H](CCCNC(=N)N)NC(=O)[C@H](C)NC(=O)[C@H](CC(N)=O)NC(=O)[C@@H]2CCCN2C(=O)[C@H](Cc2c[nH]cn2)NC(=O)[C@H](CCC(=O)O)NC(=O)[C@H](CCC(N)=O)NC(=O)[C@@H](N)CC(C)C)CSSC[C@@H](C(=O)O)NC(=O)CNC(=O)[C@H](CC(C)C)NC(=O)CNC(=O)[C@H](CO)NC(=O)[C@H](CCSC)NC(=O)[C@H](CO)NC(=O)CNC1=O [CNP-38, reference compound]
MAP during the remaining ten time points versus vehicle [2]: no difference in MAP | change in MAP at the 5, 15 and 30 min post dose time points compared to predose [2]: significant decrease in MAP | MAP (mean ± SD) ([2]; 5 min post dose): 102.0 ± 7.5 mmHg | MAP (mean ± SD) ([2]; 15 min post dose): 89.5 ± 29.4 mmHg | MAP (mean ± SD) ([2]; 30 min post dose): 99.5 ± 25.2 mmHg | MAP (mean ± SD) ([2]; predose): 106.8 ± 13.4 mmHg | AUC(0-t) [3, 9]: 2.5 ng·h/mL | Cmax [3, 9]: 7.9 ng/mL | Tmax [3, 9]: 0.167 h | half-life ([3]; male, cynomolgus monkey, in vivo, sc, 40 ug/kg, Half-life (mean)): ~7 min | tolerability ([3]; single s.c. 40 μg/kg): well tolerated | half-life at 100 μg CNP equivalents/mL [4]: 12.1 h

Permanent Lys26 CNP-38 PEG4×10 kDa Conjugate [Conjugate 12g]
half life norm. [h] [1]: Almost no proteolysis

BMN-111
half-life [5]: 0.333 h | blood pressure effect [6]: mild hypotension

Permanent Lys26 CNP-38 PEG 5 kDa Conjugate [Conjugate 19e]
EC50 compound/EC50 CNP-38 (residual NPR-B activity) [7]: >100 | half life norm. [1]: 62.76 h | IC50 of PEGylated CNP-38/IC50 CNP-38 (residual NPR-C affinity) [8]: 1.1

Permanent N-Terminal CNP-38 PEG 5 kDa Conjugate [Conjugate 15e]
EC50 compound/EC50 CNP-38 (residual NPR-B activity) [7]: >5 | half life norm. [h] [1]: Almost no proteolysis | IC50 of PEGylated CNP-38/IC50 CNP-38 (residual NPR-C affinity) [8]: 0.53

Reversible Lys26 CNP-38 PEG4×10 kDa Conjugate [Conjugate 11i]
MAP during the remaining ten time points versus vehicle [2]: no difference in MAP | change in MAP at the 5, 15 and 30 min post dose time points compared to predose [2]: physiological increase in MAP | MAP (mean ± SD) ([2]; 5 min post dose): 122.8 ± 5.9 mmHg | MAP (mean ± SD) ([2]; 15 min post dose): 121.5 ± 7.5 mmHg | MAP (mean ± SD) ([2]; 30 min post dose): 111.5 ± 13.7 mmHg | MAP (mean ± SD) ([2]; predose): 106.4 ± 10.7 mmHg | effect on blood pressure (conclusion) ([2]; subcutaneous, dosage equivalent to CNP-38): did not decrease blood pressure

Permanent N-Terminal CNP-34 PEG 5 kDa Conjugate [Conjugate 14e]
half life norm. [h] [1]: Almost no proteolysis
